Test results: patent US20040228831A1, “Polymeric conjugates for tissue activated drug delivery” (priority 2003, published 2004)

Experiments:
[1] = Maximum tolerated dose of Dox and conjugate in mice, daily i.v. x5; type: in vivo; conditions: daily i.v. injection for 5 consecutive days
Experimental: (§1) Polymeric prodrug conjugate, conjugate, 6, a doxorubicin (Dox)-containing construct in which the drug moiety is attached to the PEG backbone via a cathepsin B-cleavable linker peptide was tested in mice bearing murine melanoma B16-F10 implanted s.c. Mice were treated by daily i.v. (tail vein) injection for 5 consecutive days, beginning on the day when tumors became palpable. The conjugate was studied at the maximum tolerated dose (MTD) of the free drug, 2 mg Dox/kg (equimolar comparison), and at the conjugate's MTD, 6 mg Dox/kg (equitoxic comparison). The conjugate, 6, or Dox administered at the free drug's MTD (2 mg/kg) had minimal anti-tumor effect (30% tumor reduction, 3.4 days delay in reaching 500 mg). But at the conjugate's MTD of 6 mg Dox/kg there was substantial activity (FIG. 1A). The conjugate reduced tumor by 81% and extended the time to reach 500 mg to 6.5 days. Therefore as a polymeric prodrug conjugate it was possible to increase the tolerated drug dose by a factor of 3, and this increase permitted the achievement of substantially greater anti-tumor efficacy.

[2] = tested on: murine melanoma B16-F10; test: Anti-tumor efficacy in mice bearing s.c. murine melanoma B16-F10, daily i.v. x5; type: in vivo; conditions: 2 mg/kg (free drug's MTD), daily i.v. for 5 days
Experimental: as §1

[3] = Maximum tolerated dose of Pt construct and oxaliplatin; type: in vivo, C57B1/6 mice; conditions: mice
Description: Plasmin labile construct, 26, bearing an aspartic acid-platinum-diamino-cyclohexane (DACH) chelate was studied using C57B1/6 mice bearing s.c. B16-F10 murine melanoma (FIG. 1C). […] Thus, a substantially larger dose of Pt was safely delivered by the polymeric prodrug construct.

SMILES: COc1cccc2c1C(=O)c1c(O)c3c(c(O)c1C2=O)C[C@@](O)(C(=O)CO)C[C@@H]3O[C@H]1C[C@H](N)[C@H](O)[C@H](C)O1 [Dox, doxorubicin]
- maximum tolerated dose (MTD) [1]: 2 mg Dox/kg
- delay in reaching 500 mg [2]: 3.4 days
- tumor reduction [2]: 30%

SMILES: O=C1[O][Pt]2([NH][C@@H]3CCCC[C@H]3[NH]2)[O]C1=O [oxaliplatin]
- maximum tolerated dose (MTD) [3]: 10 mg Pt/kg
